How the values were obtained:
[1] = molecular target: T1, Calpain-1 catalytic subunit (Homo sapiens, UniProt P07384); assay: In vitro inhibitory activity against recombinant human calpain 1
T1 sequence (P07384 whole entry): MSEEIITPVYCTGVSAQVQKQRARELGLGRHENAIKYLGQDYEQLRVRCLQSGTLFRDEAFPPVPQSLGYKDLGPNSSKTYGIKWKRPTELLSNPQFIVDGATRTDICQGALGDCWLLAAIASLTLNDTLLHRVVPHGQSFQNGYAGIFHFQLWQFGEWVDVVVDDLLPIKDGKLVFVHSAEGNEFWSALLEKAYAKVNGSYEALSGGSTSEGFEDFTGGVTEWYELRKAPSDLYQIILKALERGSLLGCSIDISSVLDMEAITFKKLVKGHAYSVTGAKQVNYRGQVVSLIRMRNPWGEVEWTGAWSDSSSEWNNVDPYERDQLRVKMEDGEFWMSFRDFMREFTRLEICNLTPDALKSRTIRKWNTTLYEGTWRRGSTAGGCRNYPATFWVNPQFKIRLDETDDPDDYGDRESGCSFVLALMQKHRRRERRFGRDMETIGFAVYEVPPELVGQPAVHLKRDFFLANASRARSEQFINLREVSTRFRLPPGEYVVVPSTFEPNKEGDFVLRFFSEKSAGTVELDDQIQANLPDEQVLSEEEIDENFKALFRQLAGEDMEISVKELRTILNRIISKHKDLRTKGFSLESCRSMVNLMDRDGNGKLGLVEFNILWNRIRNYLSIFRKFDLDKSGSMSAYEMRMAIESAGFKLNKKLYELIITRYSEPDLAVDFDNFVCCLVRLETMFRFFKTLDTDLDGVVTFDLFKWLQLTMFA

[2] = molecular target: T1, Calpain-1 catalytic subunit; assay: In vitro inhibitory activity against human calpain 1 in Molt-4 cells (intact human T-cell leukemia cell line); assay type: cell-based
Cathepsin B [3] = molecular target: T2, Cathepsin B (Homo sapiens, UniProt P07858); assay: Inhibitory activity against cathepsin B
Chymotrypsinogen B = Chymotrypsinogen B (Homo sapiens, UniProt P17538); assay: Inhibitory activity against chymotrypsinogen; Range 1-10 uM
Chymotrypsinogen B, sequence (P17538 34-164 limits assumed, other chains not shown): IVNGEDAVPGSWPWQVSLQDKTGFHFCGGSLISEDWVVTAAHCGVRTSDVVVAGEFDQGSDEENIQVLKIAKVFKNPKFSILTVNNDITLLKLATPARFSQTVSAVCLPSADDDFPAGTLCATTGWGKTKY
Chymotrypsinogen B, sequence (P17538 167-263 limits assumed, other chains not shown): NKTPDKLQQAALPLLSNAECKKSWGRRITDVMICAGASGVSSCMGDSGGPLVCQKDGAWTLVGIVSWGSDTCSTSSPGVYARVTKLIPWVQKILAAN

[4] = molecular target: T1, Calpain-1 catalytic subunit; assay: In vitro inhibitory activity against human calpain I; Not determined
Cathepsin B [5] = molecular target: T2, Cathepsin B; assay: Inhibitory activity against cathepsin B; In active

Row | IC50 [1] | SMILES | also measured
1 | 240 nM | CCN1C(C(=O)N[C@@H](Cc2ccccc2)C(=O)C(=O)NCc2ccncc2)Cc2cc3c(cc2S1(=O)=O)OCCO3 (some centres undefined) | –
2 | 1000 nM | CCNC(=O)C(=O)[C@H](Cc1ccccc1)NC(=O)C1Cc2cc(Cl)ccc2S(=O)(=O)N1CC (some centres undefined) | –
3 | 205 nM | CCN1C(C(=O)N[C@@H](Cc2ccccc2)C(=O)C(=O)NC(C)C)Cc2cc3c(cc2S1(=O)=O)OCCO3 (some centres undefined) | –
4 | – | CCN1C(C(=O)N[C@@H](Cc2ccccc2)C(=O)C(=O)NCCCNS(=O)(=O)c2ccccc2)Cc2cc3c(cc2S1(=O)=O)OCCO3 (some centres undefined) | IC50 [2]: 2700 nM
5 | 63 nM | CCN1C(C(=O)N[C@@H](Cc2ccccc2)C(=O)C(=O)NCCc2ccccc2)Cc2cc3c(cc2S1(=O)=O)OCCO3 (some centres undefined) | –
6 | – | CCN1C(C(=O)N[C@@H](Cc2ccccc2)C(=O)C(=O)NCCNS(=O)(=O)c2ccc(-c3ccccn3)s2)Cc2cc3c(cc2S1(=O)=O)OCCO3 (some centres undefined) | IC50 [2]: 1300 nM; IC50 (Cathepsin B [3]): Not Active; IC50 (Chymotrypsinogen B): > 10000 nM
7 | 5000 nM | CCN1C(C(=O)N[C@@H](Cc2ccccc2)C(=O)C(=O)NCCCn2ccnc2)Cc2cc3c(cc2S1(=O)=O)OCCO3 (some centres undefined) | –
8 | – | CCN1C(C(=O)N[C@@H](Cc2ccccc2)C(=O)C(=O)NCCCNS(=O)(=O)c2ccc([N+](=O)[O-])cc2)Cc2cc3c(cc2S1(=O)=O)OCCO3 (some centres undefined) | IC50 [2]: 3600 nM
9 | 200 nM | CCN1C(C(=O)N[C@@H](Cc2ccccc2)C(=O)C(=O)NCCOC)Cc2cc3c(cc2S1(=O)=O)OCCO3 (some centres undefined) | –
10 | – | CCN1C(C(=O)N[C@@H](Cc2ccccc2)C(=O)C(=O)NCCNS(=O)(=O)c2ccc([N+](=O)[O-])cc2)Cc2cc3c(cc2S1(=O)=O)OCCO3 (some centres undefined) | IC50 [2]: 4200 nM
11 | – | CCN1C(C(=O)N[C@@H](Cc2ccccc2)C(=O)C(=O)NCCNS(=O)(=O)c2ccc(F)cc2)Cc2cc3c(cc2S1(=O)=O)OCCO3 (some centres undefined) | IC50 [2]: 2000 nM
12 | – | CCN1C(C(=O)N[C@H](C=O)Cc2ccccc2)Cc2cc(Cl)ccc2S1(=O)=O (some centres undefined) | IC50 [4]: 5 nM
13 | 7 nM | O=C[C@H](Cc1ccccc1)NC(=O)C1Cc2ccccc2S(=O)(=O)N1 (some centres undefined) | –
14 | 170 nM | CCN1C(C(=O)N[C@@H](Cc2ccccc2)C(=O)C(=O)NCc2ccccn2)Cc2cc3c(cc2S1(=O)=O)OCCO3 (some centres undefined) | –
15 | 500 nM | CCN1C(C(=O)N[C@@H](Cc2ccccc2)C(=O)C(=O)NCCCN2CCCC2=O)Cc2cc3c(cc2S1(=O)=O)OCCO3 (some centres undefined) | –
16 | 195 nM | CCN1C(C(=O)N[C@@H](Cc2ccccc2)C(=O)C(=O)NCCCN2CCOCC2)Cc2cc3c(cc2S1(=O)=O)OCCO3 (some centres undefined) | –
17 | 200 nM | C=CCNC(=O)C(=O)[C@H](Cc1ccccc1)NC(=O)C1Cc2cc3c(cc2S(=O)(=O)N1CC)OCCO3 (some centres undefined) | –
18 | 150 nM | CCCCCNC(=O)C(=O)[C@H](Cc1ccccc1)NC(=O)C1Cc2cc3c(cc2S(=O)(=O)N1CC)OCCO3 (some centres undefined) | –
19 | – | CCN1C(C(=O)N[C@@H](Cc2ccccc2)C(=O)C(=O)NCCCNS(=O)(=O)c2ccc(F)cc2)Cc2cc3c(cc2S1(=O)=O)OCCO3 (some centres undefined) | IC50 [2]: 2400 nM
20 | – | CCN1C(C(=O)N[C@@H](Cc2ccccc2)C(=O)C(=O)NCCNS(=O)(=O)c2ccccc2)Cc2cc3c(cc2S1(=O)=O)OCCO3 (some centres undefined) | IC50 [2]: 5000 nM; IC50 (Cathepsin B [5]): Not Active; IC50 (Chymotrypsinogen B): > 10000 nM
21 | 1000 nM | CCN1C(C(=O)N[C@@H](Cc2ccccc2)C(=O)C(=O)OC)Cc2cc3c(cc2S1(=O)=O)OCCO3 (some centres undefined) | –
22 | 500 nM | CCCCNC(=O)C(=O)[C@H](CC(C)C)NC(=O)C1Cc2cc3c(cc2S(=O)(=O)N1CC)OCCO3 (single isomer, unassigned; form 1) | –
23 | 1000 nM | CCCCNC(=O)C(=O)[C@H](CC(C)C)NC(=O)C1Cc2cc3c(cc2S(=O)(=O)N1CC)OCCO3 (single isomer, unassigned; form 2) | –
24 | – | CCCCNC(=O)C(=O)[C@H](Cc1ccccc1)NC(=O)C1Cc2cc3c(cc2S(=O)(=O)N1CC)OCCO3 (stereo in doubt) | IC50 (Cathepsin B [5]): Not Active; IC50 (Chymotrypsinogen B): > 10000 nM

Source: ChEMBL document CHEMBL1146668, “1,2-Benzothiazine 1,1-dioxide alpha-ketoamide analogues as potent calpain I inhibitors” (Bioorg Med Chem Lett, 2004)
